Laboratory results from PubChem BioAssay AID493250 (Broad Institute, 2011).
The source made the active and inactive calls.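 Rule for the calls: active = signal decrease with fitted half-maximal dose at or below ten times the highest valid tested dose; inconclusive = poor fit, or flat fit at 30 to 70% inhibition; inactive = the rest.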

What follows are molecules tested against Zinc finger protein mex-5 (Caenorhabditis elegans) (UniProt Q9XUB2) (assay: inhibitors of MEX-5 RNA binding, dose response, biochemical, fluorescence polarization, C. elegans, cherry-picked, round 3 (AID 493250)). Settings: purified MEX-5-MBP, FITC-TCR2 RNA fluorescence polarization.
Chain of Zinc finger protein mex-5 (Caenorhabditis elegans) (Q9XUB2 whole entry, looked up): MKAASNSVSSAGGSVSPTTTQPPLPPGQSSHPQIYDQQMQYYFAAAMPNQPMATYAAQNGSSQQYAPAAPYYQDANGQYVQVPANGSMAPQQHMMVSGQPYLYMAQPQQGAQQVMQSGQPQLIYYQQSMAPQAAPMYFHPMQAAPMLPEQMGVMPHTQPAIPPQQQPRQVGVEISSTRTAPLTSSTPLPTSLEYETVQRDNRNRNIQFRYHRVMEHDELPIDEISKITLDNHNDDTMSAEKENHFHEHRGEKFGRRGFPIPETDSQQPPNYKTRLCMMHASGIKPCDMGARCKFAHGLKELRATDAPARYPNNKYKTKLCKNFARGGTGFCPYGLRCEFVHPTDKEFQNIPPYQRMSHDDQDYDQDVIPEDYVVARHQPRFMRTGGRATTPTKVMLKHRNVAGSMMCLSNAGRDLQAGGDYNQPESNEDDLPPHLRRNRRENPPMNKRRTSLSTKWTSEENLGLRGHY
`Cc1ccc2c(c1)c1nc3ccccc3nc1n2C` showed an AC50 of 6.78 µM.
`COC(=O)c1ccc2c(c1)SC1=C(CCCC1=O)N2` gave an AC50 of 5.95 µM.
Work on `CCN1/C(=C/C=C/c2oc3ccc(-c4ccccc4)cc3[n+]2CC)Oc2ccc(-c3ccccc3)cc21` yielded an AC50 of 0.338 µM.
`COc1ccccc1/C=C1\SC(=S)N(CCC(=O)Nc2cc(C)on2)C1=O` was tested, and the AC50 was > 10 µM (inactive).
With `Cc1ccc(C(=O)O)cc1-c1ccc(/C=C2\SC(=O)N(CC(=O)Nc3ccccc3)C2=O)o1` the AC50 was 2.74 µM.
`CCN1C(=O)c2cccc3c(NC(=O)C4CCCCC4)ccc1c23` gave an AC50 of 6.96 µM.

Same assay, conditions: purified MEX-5-MBP, FITC-TCR2 RNA fluorescence polarization; at 10 µM (top of the series)
For `COCCN1CCC(CNCc2cn(-c3cc(C)ccc3C)nc2-c2ccccc2)C1` (stereo not given), the “activity change, negative = inhibition” value was “inactive”.
In the case of `CC(C)C(=O)OCC(=O)Nc1ccc2c(c1)CCC2`, the “activity change, negative = inhibition” value is reported as “inactive”.
For `O=C(NNC(=O)c1ccc(O)c(Cl)c1)c1cccc(S(=O)(=O)N2CCOCC2)c1`, the “activity change, negative = inhibition” value was “inactive”.
In the case of `Nc1cc(C(=O)O)c(Oc2ccc(Cl)cc2Cl)cc1C(=O)O`, the “activity change, negative = inhibition” value is reported as “inactive”.
With `CC1=Nc2ccccc2/C1=C\c1nc(-c2ccccc2)oc1O` the “activity change, negative = inhibition” value was “inactive”.
For `COc1ccccc1N=Nc1c(C)[nH][nH]c1=O`, the “activity change, negative = inhibition” value was “inactive”.
`Brc1ccc(-c2cn3nc4c(nc3n2)CCCC4)cc1` was tested, and the “activity change, negative = inhibition” value was “inactive”.
For `Cc1cccc(-n2c(N)c(-c3nc4ccccc4n3C)c3nc4ccccc4nc32)c1`, the “activity change, negative = inhibition” value was “inactive”.
In the case of `O=C(N/N=C/c1cccnc1)c1ccccc1`, the “activity change, negative = inhibition” value is reported as “inactive”.
`CC1(C)NC(=O)NC2(C)NC(=O)NC(C)(C)C12` (stereo not given) was tested, and the “activity change, negative = inhibition” value was “inactive”.
With `CCc1nnc2c(N(C)C)nc3ccccc3n12` the “activity change, negative = inhibition” value was “inactive”.
For `CC(=O)c1cc(NC(=O)c2ccc(C)cc2)c(=O)oc1C`, the “activity change, negative = inhibition” value was “inactive”.
For `O=C(NC1CCSc2ccccc21)c1ccc([N+](=O)[O-])cc1` (stereo not given), the “activity change, negative = inhibition” value was “inactive”.
`COc1ccc(OC)c(/C=C/C(=O)Nc2ccc(OC)nc2)c1` was tested, and the “activity change, negative = inhibition” value was “inactive”.
For `C#CCOCCOCCOCCNc1nc(N2CCN(C(=O)[C@H]([C@@H](C)O)n3cc(CCCCN)nn3)CC2)nc(N2CCN(C(=O)[C@H](C)n3cc(CCCN=C(N)N)nn3)CC2)n1`, the “activity change, negative = inhibition” value was “inactive”.
For `COc1ccc(NC(=O)c2cccs2)cn1`, the “activity change, negative = inhibition” value was “inactive”.
For `COC(=O)c1ccc(CC(=O)c2ccc(O)cc2O)o1`, the “activity change, negative = inhibition” value was “inactive”.
In the case of `COCCNc1nnc(SCC(=O)NNC(=O)c2ccc([N+](=O)[O-])cc2)s1`, the “activity change, negative = inhibition” value is reported as “inactive”.
`Cc1cc(C)c[n+](-c2nc([O-])sc2C=O)c1` was tested, and the “activity change, negative = inhibition” value was “inactive”.
With `CC(=O)Nc1ccc(/C=C/c2nc(-c3ccccc3O)n[nH]2)cc1` the “activity change, negative = inhibition” value was “inactive”.
`COc1ccc2cc3c(N)c(C(=O)NCc4ccco4)sc3nc2c1` was tested, and the “activity change, negative = inhibition” value was “inactive”.
For `C=CCn1c(Cc2nc3ccc(Cl)cc3[nH]2)n[nH]c1=S`, the “activity change, negative = inhibition” value was “inactive”.
With `Cc1c(CN2CCCC(C)C2)c(O)n(CCO)c(=O)c1C#N` (stereo not given) the “activity change, negative = inhibition” value was “inactive”.
In the case of `CC(=O)c1cc(NC(=O)c2ccc([N+](=O)[O-])cc2)c(=O)oc1C`, the “activity change, negative = inhibition” value is reported as “inactive”.
With `COc1ccc(CCNc2c3ccccc3nc3ccccc23)cc1OC` the “activity change, negative = inhibition” value was “inactive”.
`CC(=O)c1c2c3c(c(Br)ccc3n(C)c1=O)C(=O)c1ccccc1-2` was tested, and the “activity change, negative = inhibition” value was “inactive”.
With `Cc1cccc(/C=N/NC(=O)Cn2nnnc2N)n1` the “activity change, negative = inhibition” value was “inactive”.
In the case of `O=C(NC1CCSc2ccccc21)c1ccccc1Br` (stereo not given), the “activity change, negative = inhibition” value is reported as “inactive”.
With `CCc1ccc(S(=O)(=O)Nc2ccc(O)c3c(=O)cc(-c4ccccc4Cl)oc23)cc1` the “activity change, negative = inhibition” value was “inactive”.
For `O=C1N=c2ccccc2=C1c1[nH]c(=S)[nH]c1O`, the “activity change, negative = inhibition” value was “inactive”.
For `O=c1[nH]nc(CNc2ccc(Cl)cc2Cl)c2ccccc12`, the “activity change, negative = inhibition” value was “inactive”.
In the case of `N#C/C(C(N)=O)=C1/CCc2ccccc2N1`, the “activity change, negative = inhibition” value is reported as “inactive”.
With `CCOC(=O)C1Cc2ccccc2C(=O)O1` (stereo not given) the “activity change, negative = inhibition” value was “inactive”.
In the case of `NC(=O)c1cccc2cc3ccccc3cc12`, the “activity change, negative = inhibition” value is reported as “inactive”.
For `C/C=C(\C)CN1CCC(n2nccc2NC(=O)CCCc2ccccc2)CC1`, the “activity change, negative = inhibition” value was “inactive”.
`COC(=O)CCC(=O)NC(=S)Nc1sc(C)c(C)c1C(N)=O` was tested, and the “activity change, negative = inhibition” value was “inactive”.
In the case of `Oc1ccc(/C=N/N2CCOCC2)c(O)c1O`, the “activity change, negative = inhibition” value is reported as “inactive”.
For `O=C(NN=C1C2CC3CC1CC(Cl)(C3)C2)c1ccccn1`, the “activity change, negative = inhibition” value was “inactive”.
In the case of `Cc1ccc(C(=O)N/C(=C\c2ccc(-c3ccccc3[N+](=O)[O-])o2)C(=O)NCCN(C)C)cc1`, the “activity change, negative = inhibition” value is reported as “inactive”.
`Cc1ccc2c(c1Cl)NC(C(=O)O)C1CC(Sc3ccccc3[N+](=O)[O-])C(Cl)C21` (stereo not given) was tested, and the “activity change, negative = inhibition” value was “inactive”.
With `Cc1nc2c(N=Nc3ccccc3F)c(N)nn2c(N)c1C#N` the “activity change, negative = inhibition” value was “inactive”.
For `COc1ccc(N=Nc2c(C)[nH][nH]c2=O)cc1`, the “activity change, negative = inhibition” value was “inactive”.
In the case of `Cc1cc(/C=C2\C(=O)NC(=O)N(c3cccc(F)c3)C2=O)c(C)n1-c1cc(C(=O)O)cc(C(=O)O)c1`, the “activity change, negative = inhibition” value is reported as “inactive”.
With `COc1cc2c(cc1OC)[C@@H](Cc1ccc(OCCC#N)cc1)N(C)CC2` the “activity change, negative = inhibition” value was “inactive”.
For `COc1cccc(NCc2cc(=O)oc3cc(C)c(C(C)C)cc23)c1`, the “activity change, negative = inhibition” value was “inactive”.
In the case of `O=C1SC(SCc2ccccc2)=N/C1=C\c1ccc(C(=O)O)cc1`, the “activity change, negative = inhibition” value is reported as “inactive”.
`CCCNc1nc2ccccc2n2c(C)nnc12` was tested, and the “activity change, negative = inhibition” value was “inactive”.
In the case of `Nc1ccc2oc(-c3ccccc3Cl)cc(=O)c2c1O`, the “activity change, negative = inhibition” value is reported as “inactive”.
`Oc1cccc(/C=N/NC(=S)Nc2cccnc2)c1O` was tested, and the “activity change, negative = inhibition” value was “inactive”.
In the case of `O=C(O)Cn1c(O)c(C2=c3ccccc3=NC2=O)sc1=O`, the “activity change, negative = inhibition” value is reported as “inactive”.
`COc1ccc(/C=C/C(=O)c2cc(Cl)cc(Cl)c2O)c(OC)c1` was tested, and the “activity change, negative = inhibition” value was “inactive”.
For `Cn1nc(C(=O)NNC(=O)c2ccc(Cl)cc2)ccc1=O`, the “activity change, negative = inhibition” value was “inactive”.
For `Cc1c(N=Cc2cc3c(cc2[N+](=O)[O-])OCO3)cccc1[N+](=O)[O-]`, the “activity change, negative = inhibition” value was “inactive”.
With `O=C(O)c1ccc2cccnc2c1O` the “activity change, negative = inhibition” value was “inactive”.
For `Cc1cccc(C(=O)NNc2ncnc3c2cnn3C)c1`, the “activity change, negative = inhibition” value was “inactive”.
For `COc1ccc(/C=N/NC(=S)Nc2cccc(C(=O)O)c2)cc1`, the “activity change, negative = inhibition” value was “inactive”.
`CCOc1ccccc1N=NC1C(=O)N(C(N)=S)N=C1C` (stereo not given) was tested, and the “activity change, negative = inhibition” value was “inactive”.
`O=C1N=c2ccccc2=C1c1sc(=S)n(NC(=O)c2cccc(O)c2)c1O` was tested, and the “activity change, negative = inhibition” value was “inactive”.
For `COc1ccc(C[C@@H]2c3cc(O)c(OC)cc3CCN2C)cc1O`, the “activity change, negative = inhibition” value was “inactive”.
For `CCOc1cc(/C=N/n2c(C)nc3ccccc3c2=O)ccc1O`, the “activity change, negative = inhibition” value was “inactive”.
For `Cc1cccc(C)c1NC(=O)/C(C#N)=C/c1cccs1`, the “activity change, negative = inhibition” value was “inactive”.
In the case of `C#CCOCCOCCOCCNc1nc(N2CCN(C(=O)[C@H]([C@@H](C)CC)n3cc([C@@H](N)CO)nn3)CC2)nc(N2CCN(C(=O)[C@H]([C@@H](C)CC)n3cc([C@@H](N)CO)nn3)CC2)n1`, the “activity change, negative = inhibition” value is reported as “inactive”.
With `COCCNC(=S)N/N=C/c1c2ccccc2cc2ccccc12` the “activity change, negative = inhibition” value was “inactive”.
In the case of `Cc1c(Cl)cccc1NC(=O)C(=O)NNS(=O)(=O)c1ccc(F)cc1`, the “activity change, negative = inhibition” value is reported as “inactive”.
`O=C(O)CSc1ncnc2nc[nH]c12` was tested, and the “activity change, negative = inhibition” value was “inactive”.
In the case of `Cc1c(O)ccc(-c2[nH]ncc2-c2nc3ccccc3s2)c1O`, the “activity change, negative = inhibition” value is reported as “inactive”.
`N#CCCn1c2ccccc2c2nc3ccccc3nc21` was tested, and the “activity change, negative = inhibition” value was “inactive”.
With `COc1cc(/C=C2\CCCc3c2nc2ccccc2c3C(=O)O)cc(OC)c1O` the “activity change, negative = inhibition” value was “inactive”.
With `Nc1ccc(Cc2ccc(N)c(C(=O)O)c2)cc1C(=O)O` the “activity change, negative = inhibition” value was “inactive”.
In the case of `O=C1OC(C(=O)O)Cc2ccccc21` (stereo not given), the “activity change, negative = inhibition” value is reported as “inactive”.
For `O=C(Nc1nccs1)c1ccc(-c2ccc(Cl)cc2)o1`, the “activity change, negative = inhibition” value was “inactive”.
With `Cc1ccc(NC(=O)CCC(=O)NNC(=S)Nc2ccc(F)cc2)c(C)c1` the “activity change, negative = inhibition” value was “inactive”.
For `COc1c(OC2OC(C(=O)O)C(O)C(O)C2O)cc(O)c2c(=O)cc(-c3ccccc3)oc12` (stereo not given), the “activity change, negative = inhibition” value was “inactive”.
For `CN1CN(C)c2cccc3cccc1c23`, the “activity change, negative = inhibition” value was “inactive”.
`CC[N+](C)(CC)CCCOC(=O)C(O)(c1ccccc1)C1CCCCC1` (stereo not given) was tested, and the “activity change, negative = inhibition” value was “inactive”.
In the case of `CN1CCc2nc3sc(C(=O)NC(C)(C)C)c(N)c3cc2C1`, the “activity change, negative = inhibition” value is reported as “inactive”.
For `CSc1ccccc1N=Cc1nc(-c2ccccc2)oc1O`, the “activity change, negative = inhibition” value was “inactive”.
In the case of `O=C(Nc1cccnc1)c1cccs1`, the “activity change, negative = inhibition” value is reported as “inactive”.
In the case of `Nc1c(C(=O)Nc2ccccc2)sc2nc3c(c(-c4ccco4)c12)CCC3`, the “activity change, negative = inhibition” value is reported as “inactive”.
With `CCN(CC)c1ccc(/C=N/N2CCN(c3ccccc3OC)CC2)cc1` the “activity change, negative = inhibition” value was “inactive”.
In the case of `Cc1ccc(C(=O)N/C(=C\c2ccc(-c3ccc(Cl)cc3)o2)C(=O)NCCCN(C)C)cc1`, the “activity change, negative = inhibition” value is reported as “inactive”.
With `O=C1S/C(=C\c2cccs2)C(=O)N1c1ccc(O)cc1` the “activity change, negative = inhibition” value was “inactive”.
With `O=C(NNC(=O)c1ccc([N+](=O)[O-])o1)c1ccccc1` the “activity change, negative = inhibition” value was “inactive”.
For `CCOC(=O)c1cnc(SCC(=O)NNC(=O)c2ccco2)nc1N`, the “activity change, negative = inhibition” value was “inactive”.
With `CSc1ccc(/C=C/C(=O)c2ccc(NC(C)=O)cc2)cc1` the “activity change, negative = inhibition” value was “inactive”.
In the case of `O=C(CSc1nnc(COc2ccccc2)o1)Nc1nccs1`, the “activity change, negative = inhibition” value is reported as “inactive”.
In the case of `CC(=O)Nc1ccc2c(c1)C(=O)N(c1cccc(C)c1)C2=O`, the “activity change, negative = inhibition” value is reported as “inactive”.
For `CC(=O)O[C@@H]1[C@@H](O)[C@@H](O)[C@H](Oc2c(-c3ccc(O)cc3)oc3c(CC=C(C)C)c(O)cc(O)c3c2=O)O[C@H]1C`, the “activity change, negative = inhibition” value was “inactive”.
`Cc1ccc(N2C(=O)c3ccc(C(=O)O)cc3C2=O)cc1C` was tested, and the “activity change, negative = inhibition” value was “inactive”.
